Measurements: patent US7781437B2, “Substituted heterocyclic compounds with CXCR3 antagonist activity” (Schering Corporation, priority 2005, dated 2010)
Where two headings read alike, the source gives them in different places.

Molecular target: T1, Human CXCR3 (N-delta 4) (Homo sapiens, UniProt P49682)
T1 construct: CD8 leader (N); Flag tag; expressed in transfected cells; membrane preparation
T1 sequence (P49682 5-368 limits assumed): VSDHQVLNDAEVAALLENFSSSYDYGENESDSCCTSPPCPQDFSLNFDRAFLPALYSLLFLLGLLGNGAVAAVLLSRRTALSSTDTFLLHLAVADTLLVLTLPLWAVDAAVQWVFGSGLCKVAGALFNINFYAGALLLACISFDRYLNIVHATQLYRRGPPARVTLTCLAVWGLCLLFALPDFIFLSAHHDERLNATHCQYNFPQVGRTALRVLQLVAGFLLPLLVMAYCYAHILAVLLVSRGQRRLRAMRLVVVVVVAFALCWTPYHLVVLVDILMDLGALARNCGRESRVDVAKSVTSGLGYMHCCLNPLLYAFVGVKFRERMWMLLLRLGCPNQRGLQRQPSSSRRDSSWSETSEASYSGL
Assay: Human CXCR3 (N-delta 4) Scintillation Proximity Assay (SPA), [125I] IP-10 binding to Ba/F3-hCXCR3 (N-delta 4) membranes
Settings: [125I] IP-10 displacement
Excerpt: The inventive compounds can readily be evaluated to determine activity at The CXCR3 receptors by known methods, such as, for example, Development of Human CXCR3 (N-delta 4) Binding Assay.
Cloning and Expression of Human CXCR3 (N-delta 4):
The DNA encoding human CXCR3 was cloned by PCR using human genomic DNA (Promega, Madison, Wis.) as a template. The PCR primers were designed based on the published sequence of human orphan receptor GPR9 (1) with incorporated restriction sites, a Kozak consensus sequence, CD8 leader and Flag tag. The PCR product was subcloned into the mammalian expression vector pME18Sneo, a derivative of the SR-alpha expression vector (designated as pME18Sneo-hCXCR3 (N-delta 4).
IL-3-dependent mouse pro-B cells Ba/F3 were transfected by electroporation in 0.4 ml Dulbecco's PBS containing 4×10^6 cells with 20 μg of pME18Sneo-hCXCR3 (N-delta 4) plasmid DNA. Cells were pulsed at 400 Volts, 100 OHMs, 960 μFd. The transfected cells were under selection with 1 mg/ml G418 (Life Technologies, Gaithersburg, Md.). G418-resistant Ba/F3 clones were screened for CXCR3 expression by specific binding of [^125I] IP-10 (NEN Life Science Products, Boston, Mass.).
Preparation of Ba/F3-hCXCR3 (N-delta 4) membranes:
Ba/F3 cells expressing human CXCR3 (N-delta 4) were pelleted and resuspended in the lysis buffer containing 10 mM HEPES , pH 7.5 and Complete® protease inhibitors (1 tablet per 100 ml) (Boehringer Mannheim, Indianapolis, Ind.) at a cell density of 20×10^6 cells per ml. After 5 minutes incubation on ice, cells were transferred to 4639 cell disruption bomb (Parr Instrument, Moline, Ill.) and applied with 1,500 psi of nitrogen for 30 minutes on ice. Large cellular debris was removed by centrifugation at 1,000×g. Cell membrane in the supernatant was sedimented at 100,000×g. The membrane was resuspended in the lysis buffer supplemented with 10% sucrose and stored at −80° C. Total protein concentration of the membrane was determined by BCA method from Pierce (Rockford, Ill.).
Human CXCR3 (N-delta 4) Scintillation Proximitv Assay (SPA):
For each assay point, 2 μg of membrane was preincubated for 1 hr with 300 μg wheat germ agglutinin (WGA) coated SPA beads (Amersham, Arlington Heights, Ill.) in the binding buffer (50 mM HEPES, 1 mM CaCl2, 5 mM MgCl2, 125 mM NaCI, 0.002% NaN3, 1.0% BSA) at room temperature. The beads were spun down, washed once, resuspended in the binding buffer and transferred to a 96-well Isoplate (Wallac, Gaithersburg, Md.). 25 pM of [^125I] IP-10 with tested compounds in a series of titration were added to start the reaction. After 3 hr reaction at room temperature, the amount of [^125I] IP-10 bound to the SPA beads was determined with a Wallac 1450 Microbeta counter.
The Ki values for the various example compounds of the present invention are given in the afore-mentioned Table 1. From these values, it would be apparent to the skilled artisan that the compounds of the invention have excellent utility CXCR3 antagonists.

[1] = specific Ki values (Table 2), read-out: Ki

| Ki (read-out: Ki rating) | Ki [1] | Structure (SMILES) |
| --- | --- | --- |
| 25 to 100 nM | – | CC[C@H]1CN(c2c(Cl)nc(-c3nnc(N)o3)c(=O)n2C)CCN1C1CCN(C(=O)c2ccc(Cl)cc2)CC1 [Compound Number 6] |
| 25 to 100 nM | – | CC[C@H]1CN(c2c(Cl)nc(C(N)=O)c(=O)n2C)CCN1C1CCN(Cc2ccc(Cl)nc2N)CC1 [Compound Number 10] |
| 25 to 100 nM | – | CC[C@H]1CN(c2c(C)nc(C(N)=O)c(=O)n2C)CCN1C1CCN(Cc2ccc(Cl)cc2F)CC1 [Compound Number 7] |
| 25 to 100 nM | – | CC[C@H]1CN(c2c(Cl)nc(C(=O)OC)c(=O)n2C)CCN1C1CCN(Cc2ccc(Cl)cc2F)CC1 [Compound Number 8] |
| < 25 nM | 2.6 nM | CCNc1nnc(-c2nc(C)c(N3CCN(C4CCN(C(=O)c5ccc(Cl)nc5N)CC4)[C@@H](CC)C3)n(C)c2=O)o1 [Compound Number 2] |
| > 100 nM | – | CC[C@H]1CN(c2nc(O)c(-c3nnc(N)o3)nc2Cl)CCN1C1CCN(Cc2ccc(Cl)cc2)CC1 [Compound Number 13] |
| > 100 nM | – | CC[C@H]1CN(c2cnc(C(N)=O)c(=O)n2C)CCN1C1CCN(Cc2ccc(Cl)nc2N)CC1 [Compound Number 12] |
| < 25 nM | 1.9 nM | CC[C@H]1CN(c2c(Cl)nc(-c3nnc(N)o3)c(=O)n2C)CCN1C1CCN(Cc2ccc(Cl)nc2)CC1 [Compound Number 5] |
| 25 to 100 nM | – | CC[C@H]1CN(c2c(Cl)nc(-c3nnc(N)o3)c(=O)n2C)CCN1C1CCN(Cc2cc(F)c(F)cc2Cl)CC1 [Compound Number 11] |
| < 25 nM | 1.9 nM | CC[C@H]1CN(c2c(Cl)nc(-c3nnc(N)o3)c(=O)n2C)CCN1C1CCN(Cc2ccc(Cl)cc2)CC1 [Compound Number 1] |
| < 25 nM | 8.3 nM | CC[C@H]1CN(c2c(Cl)nc(C(N)=O)c(=O)n2C)CCN1C1CCN(Cc2ccc(Cl)cc2F)CC1 [Compound Number 4] |
| < 25 nM | 7.5 nM | CC[C@H]1CN(c2c(Cl)nc(-c3nnc(N)o3)c(=O)n2C)CCN1C1CCN(C(=O)c2ccc(Cl)nc2N)CC1 [Compound Number 3] |
| 25 to 100 nM | – | CC[C@H]1CN(c2c(Cl)nc(-c3nnc(N)o3)c(=O)n2C)CCN1C1CCN(Cc2cc(F)c(Cl)cc2F)CC1 [Compound Number 9] |
